Format in all cases: binding
In assay [1] the target is T1, HeLa cell extract proteins (Homo sapiens, UniProt Q99570).
T1 construct: endogenous in cells; host or cells: HeLa cell extract

The target of assay [2] is T2, HeLa cell extract proteins (Homo sapiens, UniProt Q9HB71).
T2 construct: endogenous in cells; host or cells: HeLa cell extract

Assay [3] addresses T3, HeLa cell extract proteins (Homo sapiens, UniProt P05141).
T3 construct: endogenous in cells; host or cells: HeLa cell extract
T3 sequence (P05141 1-298): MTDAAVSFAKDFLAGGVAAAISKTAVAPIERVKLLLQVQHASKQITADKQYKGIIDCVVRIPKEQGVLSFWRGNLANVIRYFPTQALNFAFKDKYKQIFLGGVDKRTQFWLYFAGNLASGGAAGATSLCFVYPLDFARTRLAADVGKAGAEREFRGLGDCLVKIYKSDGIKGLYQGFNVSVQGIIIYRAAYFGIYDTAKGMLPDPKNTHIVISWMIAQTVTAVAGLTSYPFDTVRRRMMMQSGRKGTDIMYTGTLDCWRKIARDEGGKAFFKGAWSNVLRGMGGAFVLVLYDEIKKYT

Assay [4] addresses T4, HeLa cell extract proteins (Homo sapiens, UniProt Q6YN16).
T4 construct: endogenous in cells; host or cells: HeLa cell extract
T4 sequence (Q6YN16 1-418): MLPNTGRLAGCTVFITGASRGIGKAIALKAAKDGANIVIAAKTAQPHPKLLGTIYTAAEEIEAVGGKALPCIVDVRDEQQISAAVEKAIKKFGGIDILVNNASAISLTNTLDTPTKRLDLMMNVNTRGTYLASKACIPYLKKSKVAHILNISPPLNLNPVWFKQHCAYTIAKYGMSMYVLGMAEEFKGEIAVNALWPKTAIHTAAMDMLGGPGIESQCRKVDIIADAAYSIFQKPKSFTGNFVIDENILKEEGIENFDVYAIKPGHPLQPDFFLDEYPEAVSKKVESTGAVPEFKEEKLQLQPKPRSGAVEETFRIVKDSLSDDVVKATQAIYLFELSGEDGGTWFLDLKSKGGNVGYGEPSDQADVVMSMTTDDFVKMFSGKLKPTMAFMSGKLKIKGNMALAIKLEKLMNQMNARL

Assay [5] concerns the target T5, HeLa cell extract proteins (Homo sapiens, UniProt O75352).
T5 construct: endogenous in cells; host or cells: HeLa cell extract
T5 sequence (O75352 1-247): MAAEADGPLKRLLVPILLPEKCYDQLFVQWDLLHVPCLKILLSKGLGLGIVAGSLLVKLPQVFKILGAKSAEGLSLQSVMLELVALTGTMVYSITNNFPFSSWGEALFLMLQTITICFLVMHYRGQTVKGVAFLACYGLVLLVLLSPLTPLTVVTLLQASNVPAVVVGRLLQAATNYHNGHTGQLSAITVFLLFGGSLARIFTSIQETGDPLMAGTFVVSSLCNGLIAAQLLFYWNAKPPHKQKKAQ

Assay [6] addresses T6, HeLa cell extract proteins (Homo sapiens, UniProt P53992).
T6 construct: endogenous in cells; host or cells: HeLa cell extract
T6 sequence (P53992 1-1094): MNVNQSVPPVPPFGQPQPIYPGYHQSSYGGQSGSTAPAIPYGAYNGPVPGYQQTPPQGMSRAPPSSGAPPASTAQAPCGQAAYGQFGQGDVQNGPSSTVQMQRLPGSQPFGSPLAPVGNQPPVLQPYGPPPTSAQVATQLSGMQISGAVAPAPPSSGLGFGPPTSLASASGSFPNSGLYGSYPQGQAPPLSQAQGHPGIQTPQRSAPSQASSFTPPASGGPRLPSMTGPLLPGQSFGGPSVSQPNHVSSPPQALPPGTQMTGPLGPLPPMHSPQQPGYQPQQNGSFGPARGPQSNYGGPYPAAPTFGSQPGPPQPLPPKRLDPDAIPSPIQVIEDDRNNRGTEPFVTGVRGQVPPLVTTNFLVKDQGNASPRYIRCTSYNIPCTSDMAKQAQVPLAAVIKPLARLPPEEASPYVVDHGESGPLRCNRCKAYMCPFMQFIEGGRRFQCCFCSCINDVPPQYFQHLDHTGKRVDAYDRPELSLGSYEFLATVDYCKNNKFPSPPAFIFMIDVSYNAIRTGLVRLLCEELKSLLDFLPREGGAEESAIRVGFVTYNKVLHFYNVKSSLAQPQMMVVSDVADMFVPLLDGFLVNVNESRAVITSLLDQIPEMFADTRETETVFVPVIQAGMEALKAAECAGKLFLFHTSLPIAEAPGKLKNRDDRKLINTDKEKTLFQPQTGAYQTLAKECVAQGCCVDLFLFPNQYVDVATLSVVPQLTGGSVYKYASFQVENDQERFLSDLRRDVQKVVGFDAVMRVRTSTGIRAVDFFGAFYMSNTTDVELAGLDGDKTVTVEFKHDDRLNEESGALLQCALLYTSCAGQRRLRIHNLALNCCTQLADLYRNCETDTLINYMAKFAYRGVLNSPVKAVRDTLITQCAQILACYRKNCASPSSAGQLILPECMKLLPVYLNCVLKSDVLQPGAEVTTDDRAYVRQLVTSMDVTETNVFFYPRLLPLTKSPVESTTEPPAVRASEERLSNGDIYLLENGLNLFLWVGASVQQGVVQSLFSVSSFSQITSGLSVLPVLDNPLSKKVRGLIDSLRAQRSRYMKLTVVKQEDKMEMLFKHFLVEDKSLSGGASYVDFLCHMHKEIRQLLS

Assay [7] concerns the target T7, HeLa cell extract proteins (Homo sapiens, UniProt P09622).
T7 construct: endogenous in cells; host or cells: HeLa cell extract
T7 sequence (P09622 36-509): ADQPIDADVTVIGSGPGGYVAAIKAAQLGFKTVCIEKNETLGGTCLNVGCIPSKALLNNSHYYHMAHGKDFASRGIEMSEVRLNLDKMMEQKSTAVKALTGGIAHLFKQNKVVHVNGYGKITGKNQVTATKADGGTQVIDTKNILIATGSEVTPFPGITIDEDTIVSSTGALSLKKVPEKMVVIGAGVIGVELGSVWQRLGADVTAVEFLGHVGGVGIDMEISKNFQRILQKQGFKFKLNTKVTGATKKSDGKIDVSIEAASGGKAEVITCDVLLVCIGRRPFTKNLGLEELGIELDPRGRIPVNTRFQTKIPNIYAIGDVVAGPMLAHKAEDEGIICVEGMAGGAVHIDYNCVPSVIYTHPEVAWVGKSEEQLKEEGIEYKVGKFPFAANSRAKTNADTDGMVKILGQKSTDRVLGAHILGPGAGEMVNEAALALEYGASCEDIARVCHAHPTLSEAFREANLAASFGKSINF

Where [8] appears, read: HeLa, protein CACYBP (ISOFORM 1 OF CALCYCLIN-BINDING PROTEIN).

Each structure is given as a SMILES string. Read-outs that look alike come from different tables or passages of the source.

T2 sequence (Q9HB71 whole entry): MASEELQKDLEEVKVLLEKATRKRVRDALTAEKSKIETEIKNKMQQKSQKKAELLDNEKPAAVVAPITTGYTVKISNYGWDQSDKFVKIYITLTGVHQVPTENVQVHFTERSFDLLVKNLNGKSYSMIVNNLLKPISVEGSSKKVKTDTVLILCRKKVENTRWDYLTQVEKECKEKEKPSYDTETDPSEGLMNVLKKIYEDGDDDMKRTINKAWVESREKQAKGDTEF
T1 sequence (Q99570 whole entry): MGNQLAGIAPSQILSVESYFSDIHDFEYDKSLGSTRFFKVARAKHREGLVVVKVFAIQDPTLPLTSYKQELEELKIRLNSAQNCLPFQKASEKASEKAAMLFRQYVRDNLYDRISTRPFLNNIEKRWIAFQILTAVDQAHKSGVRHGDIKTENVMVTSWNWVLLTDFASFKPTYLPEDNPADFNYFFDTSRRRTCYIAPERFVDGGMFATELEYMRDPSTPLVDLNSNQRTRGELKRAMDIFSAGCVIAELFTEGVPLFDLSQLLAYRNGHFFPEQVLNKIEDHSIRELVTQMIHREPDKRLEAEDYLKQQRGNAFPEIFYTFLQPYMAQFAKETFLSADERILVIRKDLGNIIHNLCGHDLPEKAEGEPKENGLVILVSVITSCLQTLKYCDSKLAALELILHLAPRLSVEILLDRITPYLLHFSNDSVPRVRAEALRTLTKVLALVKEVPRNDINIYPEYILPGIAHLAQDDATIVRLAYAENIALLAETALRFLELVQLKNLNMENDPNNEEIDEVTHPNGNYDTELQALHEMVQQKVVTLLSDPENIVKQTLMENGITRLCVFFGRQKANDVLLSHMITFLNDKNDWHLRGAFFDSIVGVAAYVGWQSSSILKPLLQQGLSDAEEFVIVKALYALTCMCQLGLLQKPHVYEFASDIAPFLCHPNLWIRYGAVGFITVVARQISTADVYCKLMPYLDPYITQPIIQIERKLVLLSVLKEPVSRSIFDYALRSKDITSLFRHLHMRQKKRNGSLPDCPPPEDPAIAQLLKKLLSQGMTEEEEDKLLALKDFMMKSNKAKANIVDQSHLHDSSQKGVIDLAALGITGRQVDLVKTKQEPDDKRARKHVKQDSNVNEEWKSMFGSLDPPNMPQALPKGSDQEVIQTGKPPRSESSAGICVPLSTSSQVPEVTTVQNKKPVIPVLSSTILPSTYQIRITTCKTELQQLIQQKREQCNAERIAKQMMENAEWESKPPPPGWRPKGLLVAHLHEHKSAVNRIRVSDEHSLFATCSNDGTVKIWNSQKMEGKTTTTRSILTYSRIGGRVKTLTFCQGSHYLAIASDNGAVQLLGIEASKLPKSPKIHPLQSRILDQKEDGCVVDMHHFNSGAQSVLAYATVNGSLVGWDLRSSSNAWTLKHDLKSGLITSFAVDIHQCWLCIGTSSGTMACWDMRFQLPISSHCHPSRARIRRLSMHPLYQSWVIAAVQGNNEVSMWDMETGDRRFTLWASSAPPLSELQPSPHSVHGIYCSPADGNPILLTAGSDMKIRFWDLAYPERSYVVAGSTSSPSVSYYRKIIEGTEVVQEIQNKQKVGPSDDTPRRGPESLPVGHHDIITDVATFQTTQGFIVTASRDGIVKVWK

On to `CCCCCCOc1cccc(Cc2cnc(N)nc2N)c1` [compound 2], for which the “fold changes relative to vehicle control” value in assay [1] (captured protein PIK3R4, HeLa) was 1.07; in assay [2] (protein CACYBP, HeLa), 1.37; in assay [3] (captured protein SLC25A5, HeLa), 0.9; in assay [4] (protein HSDL2, HeLa), 1.23; in assay [5] (protein MPDU1, HeLa) it was 0.89; in assay [6] (protein SEC24C, HeLa) it was 1.01. The “fold changes relative to vehicle control” value in assay [7] (HeLa, protein DLD) came out at 0.42.

As for `NCCOCCOCC(=O)Nc1nc2ncc(CNc3ccc(C(=O)NC(CCC(=O)O)C(=O)O)cc3)nc2c(=O)[nH]1` (stereo not shown) [compound 6], the “fold changes relative to vehicle control” value was 1.2 in assay [1] (HeLa, protein PIK3R4); 1.16 in assay [2] (setting [8]); 0.97 in assay [3] (HeLa, protein SLC25A5); 1.04 in assay [4] (HeLa, protein HSDL2); 1.08 in assay [5] (HeLa, protein MPDU1); 0.92 in assay [6] (HeLa, protein SEC24C). The “fold changes relative to vehicle control” value in assay [7] (HeLa, captured protein DLD) is reported as 0.99.

For `CCCCCCOc1ccc(Cc2cnc(N)nc2N)cc1` [compound 1], the “fold changes relative to vehicle control” value in assay [1] (captured protein PIK3R4, HeLa) was 1.03; in assay [2] (protein CACYBP, HeLa), 1.12; in assay [3] (captured protein SLC25A5, HeLa) it was 0.96; in assay [4] (protein HSDL2, HeLa) it was 1.11; in assay [5] (protein MPDU1, HeLa), 1.04; in assay [6] (protein SEC24C, HeLa) it was 1.03. Also, the “fold changes relative to vehicle control” value in assay [7] (HeLa, protein DLD) came to 0.96.

As to `Nc1nc2c(c(=O)[nH]1)N(C=O)C(CNc1ccc(C(=O)N[C@@H](CCC(=O)O)C(=O)O)cc1)CN2` (stereo partly shown) [LEU, leucovorin], the “fold changes relative to vehicle control” value in assay [1] (HeLa, protein PIK3R4) is reported as 0.97; in assay [2] (setting [8]) it was 0.85; in assay [3] (HeLa, protein SLC25A5), 0.84; in assay [4] (HeLa, protein HSDL2) it was 0.96; in assay [5] (HeLa, protein MPDU1) it was 0.93; in assay [6] (HeLa, protein SEC24C) it was 0.98. The “fold changes relative to vehicle control” value in assay [7] (HeLa, captured protein DLD) worked out at 1.01.

For `NCCCNc1ccc(C(=O)NC(CCC(=O)O)C(=O)O)cc1` (stereo not shown) [compound 7], the “fold changes relative to vehicle control” value in assay [1] (HeLa, protein PIK3R4) is given as 1.08; in assay [2] (setting [8]) it was 1.16; in assay [3] (HeLa, protein SLC25A5), 0.96; in assay [4] (HeLa, protein HSDL2), 1.02; in assay [5] (HeLa, protein MPDU1), 0.99; in assay [6] (HeLa, protein SEC24C), 1.14. Further, the “fold changes relative to vehicle control” value in assay [7] (HeLa, captured protein DLD) is recorded as 1.03.

For the molecule `Nc1nc2[nH]cc(CCc3ccc(C(=O)N[C@@H](CCC(=O)O)C(=O)O)cc3)c2c(=O)[nH]1` [PTX, pemetrexed], the “fold changes relative to vehicle control” value in assay [1] stood at 1.08; in assay [2], 1; in assay [3] it was 0.9; in assay [4], 0.96; in assay [5], 1; in assay [6], 0.96. Also, the “fold changes relative to vehicle control” value in assay [7] was found to be 0.96.

For `Nc1nc2cccc(-c3ccccc3)c2n1Cc1ccc(Cl)c(Cl)c1` [compound 3], the “fold changes relative to vehicle control” value is on record as 0.95 in assay [1] (captured protein PIK3R4, HeLa); 0.93 in assay [2] (protein CACYBP, HeLa); 1.02 in assay [3] (captured protein SLC25A5, HeLa); 0.96 in assay [4] (protein HSDL2, HeLa); 1.05 in assay [5] (protein MPDU1, HeLa); 1.28 in assay [6] (protein SEC24C, HeLa). Moreover, in assay [7] (HeLa, protein DLD), the “fold changes relative to vehicle control” value is on record as 1.01.

Source of the values: article PMC6199744, “Development of Chemical Proteomics for the Folateome and Analysis of the Kinetoplastid Folateome” (ACS Infectious Diseases, 2018).
